From patent publication US20110011310A1, “METHOD OF MANUFACTURING A COMPOSITE BASED ON COMPLEXES OF CONTROLLED STABILITY” (UNIVERSITE DE NICE SOPHIA-ANTIPOLIS, priority 2007, published 2011)

Test: Thermogravimetry of the temperature of decomposition of indigo (FIGS. 3 and 6)
Assay type: physicochemical
Protocol: […] This peak is offset to around 540° C. when the mixture has been heated at 18 (unheated), 120, 180, 280 and 350° C. during production of the composite.
In addition, during the step of cleaning by heating at temperatures of 18 (unheated), 180, 280 and 320° C. for 20 minutes, a peak characteristic of the presence of indigo in the external medium is observed, as these molecules begin to decompose at 280° C. with a maximum rate at 340° C. This phenomenon is possible owing to surface interactions between the indigo and the sepiolite, which reduce the temperature of decomposition of the indigo, which in a pure product begins at 300° C. with a maximum at 390° C. However, this peak disappears after the cleaning by heating at 350° C. for 20 minutes. […] Also, at 520° C., a peak characteristic of the presence of indigo in the sepiolite tunnels is observed. This cleaning by heating step in this type of preparation enables only the molecules present in the tunnels to be preserved.

O=C1/C(=C2\Nc3ccccc3C2=O)Nc2ccccc21 [indigo]
temperature of maximum rate of decomposition of indigo (indigo in the external medium of 23% indigo/sepiolite mixtures): 340 °C | temperature at which decomposition of indigo begins (indigo in the external medium of 23% indigo/sepiolite mixtures (surface interactions with sepiolite)): 280 °C | temperature of the thermogravimetric peak of indigo (indigo in the sepiolite tunnels of 23% indigo/sepiolite mixtures (FIG. 6)): around 520 °C | maximum temperature of decomposition of indigo (indigo incorporated in the sepiolite tunnels (FIG. 3)): 540 °C | maximum temperature of decomposition of indigo (native indigo (FIG. 3)): around 375 °C | temperature at which decomposition of indigo begins (pure product): 300 °C | temperature of maximum decomposition of indigo (pure product): 390 °C
